According to ChEMBL document CHEMBL1201862, “PubChem BioAssay data set” (2004):
Active and inactive are the calls of the source.

Tests used:
[1] = inhibitors of intracellular T. cruzi replication, confirmation, NIH3T3 host cells, beta-gal luminescence (AID 2044); assay type: functional, cell-based;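 note: intracellular parasites grown in NIH/3T3 mouse fibroblasts as host cells; luminescent beta-galactosidase reporter signal from transgenic T. cruzi replicating inside host cells; inhibitors lower the luminescence signal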
[2] = cytotoxicity toward NIH3T3 fibroblasts, dose response, counter-screen, cell-based, ATP luminescence, mouse fibroblasts (AID 2010); assay type: functional;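 note: cells exposed to compound for about 90 hours before reading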
[3] = tested on: Streptococcus sp. 'group A'; experiment: growth inhibition of control SK(-) GAS strain, dose response, counter-screen for streptokinase expression inhibitor project, luminescence, kanamycin, BacTiterGlo, confirmation (AID 1900); assay type: functional, organism-based
Streptococcus = experiment: Group A Streptococcus viability loss, dose response, counter-screen for streptokinase expression inhibitor project, luminescence, BacTiterGlo (AID 1915); assay type: functional, organism-based;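 note: potency for reduction of bacterial viability or growth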
[4] = biological target: T1, Heat shock factor protein 1 (Mus musculus, UniProt P38532); experiment: inhibition of MG132-induced HSE-luciferase signal, confirmation, cell-based, NIH3T3, luminescence, dose retest (AID 2382); assay type: functional;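 note: NIH3T3 fibroblasts with HSF1-driven luciferase reporter stressed by proteasome inhibitor MG132; luminescence from HSF1-driven luciferase expression after 8 hours of MG132 stress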
T1 sequence (P38532 whole entry): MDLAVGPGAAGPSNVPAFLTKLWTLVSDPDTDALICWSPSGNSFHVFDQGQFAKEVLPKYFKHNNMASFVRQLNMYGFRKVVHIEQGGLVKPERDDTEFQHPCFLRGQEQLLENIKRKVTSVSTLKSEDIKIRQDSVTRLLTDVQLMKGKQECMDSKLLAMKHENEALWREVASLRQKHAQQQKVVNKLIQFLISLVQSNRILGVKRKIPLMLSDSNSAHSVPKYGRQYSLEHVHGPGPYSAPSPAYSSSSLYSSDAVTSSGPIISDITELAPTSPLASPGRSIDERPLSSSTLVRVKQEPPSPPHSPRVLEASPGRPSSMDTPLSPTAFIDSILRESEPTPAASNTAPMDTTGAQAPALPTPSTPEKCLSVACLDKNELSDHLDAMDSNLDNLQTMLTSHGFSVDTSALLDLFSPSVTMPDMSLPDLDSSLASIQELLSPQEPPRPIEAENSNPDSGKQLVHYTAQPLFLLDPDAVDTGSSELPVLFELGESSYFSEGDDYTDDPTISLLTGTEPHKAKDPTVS

Cytochrome P450 3A4 = Cytochrome P450 3A4 (Homo sapiens, UniProt P08684);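 note: CYP3A4 tested as one member of a cytochrome P450 panel screen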
Sequence of Cytochrome P450 3A4 (P08684 whole entry): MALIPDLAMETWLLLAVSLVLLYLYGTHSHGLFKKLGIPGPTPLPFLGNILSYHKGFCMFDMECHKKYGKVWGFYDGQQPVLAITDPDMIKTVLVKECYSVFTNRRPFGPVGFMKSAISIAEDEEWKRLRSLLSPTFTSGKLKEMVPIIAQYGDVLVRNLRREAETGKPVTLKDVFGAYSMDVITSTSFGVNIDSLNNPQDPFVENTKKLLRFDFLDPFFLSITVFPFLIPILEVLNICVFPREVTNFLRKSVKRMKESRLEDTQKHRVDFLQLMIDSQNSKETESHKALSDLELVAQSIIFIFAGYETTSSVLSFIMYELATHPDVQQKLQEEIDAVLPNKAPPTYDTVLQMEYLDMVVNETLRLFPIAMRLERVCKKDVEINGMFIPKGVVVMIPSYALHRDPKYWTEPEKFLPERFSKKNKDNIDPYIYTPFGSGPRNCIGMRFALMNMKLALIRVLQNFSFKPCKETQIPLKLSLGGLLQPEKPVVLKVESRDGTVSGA

[5] = HEp-2 cell cytotoxicity, dose response, cytotoxicity control for RSV inhibitor project, HTS (AID 2410); assay type: functional; conditions: human respiratory syncytial virus
[6] = biological target: T2, Rac GTPase-activating protein 1 (Homo sapiens, UniProt Q9H0H5); experiment: MgcRacGAP GTPase-activating activity inhibitors, confirmation, biochemical, ADP Hunter fluorescence, primary and confirmatory (AID 624330); assay type: functional
T2 sequence (Q9H0H5 whole entry): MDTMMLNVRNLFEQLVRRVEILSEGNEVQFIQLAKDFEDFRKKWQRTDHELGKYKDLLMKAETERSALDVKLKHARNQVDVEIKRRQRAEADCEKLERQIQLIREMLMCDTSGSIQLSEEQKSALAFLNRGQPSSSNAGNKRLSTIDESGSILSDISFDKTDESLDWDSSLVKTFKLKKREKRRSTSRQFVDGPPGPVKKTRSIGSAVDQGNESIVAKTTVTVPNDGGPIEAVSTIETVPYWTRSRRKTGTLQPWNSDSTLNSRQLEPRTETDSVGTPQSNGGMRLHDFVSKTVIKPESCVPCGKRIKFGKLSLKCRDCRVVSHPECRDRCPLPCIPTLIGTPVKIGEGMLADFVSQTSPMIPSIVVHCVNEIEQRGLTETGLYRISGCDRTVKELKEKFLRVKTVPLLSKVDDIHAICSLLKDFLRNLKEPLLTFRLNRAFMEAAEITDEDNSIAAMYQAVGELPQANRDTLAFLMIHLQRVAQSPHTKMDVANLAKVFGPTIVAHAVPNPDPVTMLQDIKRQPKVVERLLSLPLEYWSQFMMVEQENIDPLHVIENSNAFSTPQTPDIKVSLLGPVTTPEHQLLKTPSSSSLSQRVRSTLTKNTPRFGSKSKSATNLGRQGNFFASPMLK

Cytochrome P450 2C9 = Cytochrome P450 2C9 (Homo sapiens, UniProt P11712)
Sequence of Cytochrome P450 2C9 (P11712 whole entry): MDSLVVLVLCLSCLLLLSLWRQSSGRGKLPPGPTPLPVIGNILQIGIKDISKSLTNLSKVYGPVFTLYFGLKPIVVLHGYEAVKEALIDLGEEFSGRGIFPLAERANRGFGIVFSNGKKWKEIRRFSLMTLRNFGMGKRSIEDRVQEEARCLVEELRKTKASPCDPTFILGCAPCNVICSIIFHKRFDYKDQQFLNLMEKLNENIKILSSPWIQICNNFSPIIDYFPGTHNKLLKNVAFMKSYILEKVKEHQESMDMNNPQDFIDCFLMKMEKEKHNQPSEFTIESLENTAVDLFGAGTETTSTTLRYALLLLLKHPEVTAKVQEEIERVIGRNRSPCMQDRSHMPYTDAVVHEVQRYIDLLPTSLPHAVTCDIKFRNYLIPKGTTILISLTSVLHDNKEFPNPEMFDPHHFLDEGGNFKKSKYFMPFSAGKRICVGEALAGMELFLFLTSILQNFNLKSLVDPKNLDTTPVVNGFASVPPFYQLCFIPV

INS1 = experiment: beta cell apoptosis inhibitors, cytokine rescue, dose response, luminescence, retest (AID 449756); assay type: functional, cell-based; conditions: Rattus norvegicus;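 note: cell death triggered by IL-1 beta plus TNF-alpha plus IFN-gamma mixture; protective hits raise ATP signal compared with cytokine alone wells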

Cc1ccc(C)c(NS(=O)(=O)c2cc(C(=O)N3CCc4ccccc4C3)ccc2Cl)c1
EC50 [1]: 2.06 µM (active) | EC50 [2]: > 60 µM (not active)

COCCSc1ccccc1C(=O)N1CCCC(C)C1 (centres undefined)
EC50 [3]: > 150 µM (not active) | EC50 (Streptococcus): > 150 µM (not active)

COC(=O)c1ccc(N=NNc2ccc(C(=O)OC)cc2)cc1
EC50 [4]: > 195 µM (not active)

CCn1nc(C)c(/C=N/NC(=O)c2c[nH]c3ccccc23)c1C
EC50 [4]: > 195 µM (not active)

c1ccc(Cn2nnnc2C(c2cccnc2)N2CCN(c3ccccc3)CC2)cc1 (centres undefined)
EC50 [1]: 0.534 µM (active) | EC50 [2]: > 60 µM (not active)

CCOC(=O)c1c(CC(C)C)csc1NC=O
AC50 (Cytochrome P450 3A4): 22.4 µM (inconclusive)

COC(=O)c1cc(COc2ccc3oc(C)c(C(=O)OC(C)C)c3c2)c(C)o1
EC50 [4]: > 195 µM (not active)

CC1CCCN(S(=O)(=O)c2ccc(NC(=O)c3cccc(-n4cnnn4)c3)cc2)C1 (centres undefined)
CC50 [5]: 16.4 µM (active)

O=C(COc1ccccc1)Nc1ccc(N2CCN(C(=O)c3ccco3)CC2)cc1
CC50 [5]: 23.6 µM (active)

CSCCC(NS(=O)(=O)c1cccs1)C(=O)NCc1ccccc1 (centres undefined)
EC50 [4]: > 195 µM (not active)

Cc1ccc(CNc2ccc(N3CCOCC3)cc2)s1
IC50 [6]: 20.1 µM (active)

CCn1cc(C(=O)NCCCN2CC(C)CC(C)C2)c(=O)c2cc(S(=O)(=O)N(C)C)ccc21 (centres undefined)
EC50 [4]: > 195 µM (not active)

COc1cccc(-c2nn(-c3ccccc3)cc2/C=C\C(=O)c2cccs2)c1
CC50 [5]: 24.3 µM (active)

O=C(CN1CCCCCC1)NCC1CCCO1 (centres undefined)
IC50 [6]: 117 µM (active)

CCCNC(=O)c1c(N)n(Cc2ccco2)c2nc3ccccc3nc12
CC50 [5]: 29.8 µM (active)

CC(C)CCNc1nc(N2CCCC2)c2c(c1C#N)CCN(C)C2
EC50 [1]: 0.1 µM (active) | EC50 [2]: > 60 µM (not active)

Cc1ccccc1-c1nc(N(C)Cc2ccco2)c2ccccc2n1
AC50 (Cytochrome P450 3A4): 25.1 µM (inconclusive)

COc1cc(CNc2ccc(N3CCOCC3)cc2)cc(Br)c1OC
IC50 [6]: 15.4 µM (active)

Cc1ccc(CN2CCN(Cc3cc4ccccc4o3)CC2CCO)cc1 (centres undefined)
EC50 [4]: > 195 µM (not active)

O=C(CSc1nnc(C2CC2)n1C1CC1)N1CCN(c2ccc(O)cc2)CC1
IC50 [6]: 30.2 µM (active)

CCOC(=O)c1[nH]c2cc(OC)c(OC)cc2c1N
IC50 [6]: 35 µM (active)

Cc1cnc(C(=O)Nc2cccc3cccnc23)cn1
EC50 [1]: 2.22 µM (active)

Cc1nn2c(SCC(=O)c3cccs3)cc(C(C)(C)C)nc2c1-c1ccccc1
EC50 [1]: 2.66 µM (active) | EC50 [2]: > 60 µM (not active)

Cc1ccc(/C=C/C(=O)NC(=S)Nc2ccccc2C(=O)NC2CCCCC2)cc1
AC50 (Cytochrome P450 2C9): 7.08 µM (inconclusive)

CCC(=O)c1ccccc1OCCN1CCN(CC)CC1
IC50 [6]: 88.2 µM (active)

Cc1cc2cc(CCNC(=O)C(=O)c3c[nH]c4ccccc34)c(O)nc2cc1C
EC50 [4]: 21.1 µM (active)

COc1ccc(C2=NN(C(=O)c3cccs3)C(c3ccccc3O)C2)cc1 (centres undefined)
EC50 [1]: 3.01 µM (active) | EC50 [2]: > 60 µM (not active)

Cc1cc(C(=O)CSc2ccc(F)cc2)cc(C)c1O
CC50 [5]: 22 µM (active)

CC1CC(C)CN(C2CCN(Cc3cccnc3)CC2)C1 (centres undefined)
IC50 [6]: 49.6 µM (active)

COc1ccc(OCCOCCN2CCc3ccccc3C2)cc1
EC50 [1]: 0.141 µM (active) | EC50 [2]: > 60 µM (not active)

CCOc1ccccc1/N=N/c1c(C)[nH]n(C(N)=S)c1=O
CC50 [5]: 33.1 µM (active)

CCN(CC)CCNCC(=O)Nc1ccc(Oc2ccccc2)cc1
IC50 [6]: 119 µM (active)

c1csc(CNc2nc(-c3ccc4c(c3)OCO4)nc3ccccc23)c1
AC50 (Cytochrome P450 2C9): 1.58 µM (inconclusive)

c1ccc(COc2ccc(OCCN3CCCC3)cc2)cc1
EC50 [1]: 1.18 µM (active) | EC50 [2]: 13.1 µM (active)

COc1ccc(C(=O)CSc2nc(C)cc(O)n2)cc1C
EC50 [4]: > 195 µM (not active)

COc1ccc(CNC(C)CCc2ccccc2)cc1 (centres undefined)
EC50 [4]: > 195 µM (not active)

Cc1cccc(N(C(=O)c2ccco2)C(C(=O)NC2CCCC2)c2cccnc2)c1C (centres undefined)
EC50 [4]: > 195 µM (not active)

Cc1cc(C)c(OCCCCN(C)C)c(Br)c1
EC50 [1]: 0.46 µM (active) | EC50 [2]: > 60 µM (inconclusive)

COc1ccc(NC(=O)C(C)N2CCN(C)CC2)cc1 (centres undefined)
IC50 [6]: 78.1 µM (active)

C/C(=N\OCC(=O)Nn1c(=O)[nH]c2ccccc2c1=O)c1cccs1
EC50 [4]: > 195 µM (not active)

CCOc1ccc(CNC(=O)CCS(=O)(=O)c2ccc3c(c2)oc(=O)n3C)cc1
EC50 [4]: > 195 µM (not active)

CCN(CC)c1ccc(NC(=O)CSC(=O)c2ccccc2)cc1
IC50 [6]: 83.9 µM (active)

CC(C)CC(C(=O)Nc1cccc(O)c1)N1C(=O)c2ccccc2C1=O (centres undefined)
EC50 [4]: > 195 µM (not active)

Cc1nc2c(ccc3nc(NC(=O)C(c4ccccc4)c4ccccc4)sc32)s1
CC50 [5]: 5.99 µM (active)

Cc1ccc(-c2nc(Nc3ccc(N4CCOCC4)cc3)c3ccccc3n2)cc1
CC50 [5]: 18.6 µM (active)

CC(=O)OC1(c2ccccc2)CCN(C)C2CCCCC21 (centres undefined)
EC50 [4]: > 195 µM (not active)

O=S(=O)(N1CCCCC1)N1CCN(CC(O)COc2ccc3cc(Br)ccc3c2)CC1 (centres undefined)
EC50 [1]: 2.31 µM (active) | EC50 [2]: > 60 µM (not active)

Cc1nc2ccc(NC(=O)N3CCSCC3)cc2s1
EC50 [4]: > 195 µM (not active)

N#CCCn1c(=O)c(-c2ccccc2)nc2cnc(Oc3cccc(Cl)c3)nc21
AC50 (Cytochrome P450 2C9): 7.94 µM (inconclusive)

COc1ccc(CN2CCN(C(C)C(=O)N(C)Cc3cccc(F)c3)CC2)cc1OC (centres undefined)
IC50 [6]: 76.2 µM (active)

Cc1ccccc1C1c2[nH]c3ccccc3c2CCN1Cc1cccn1-c1ncccn1 (centres undefined)
EC50 [1]: 1.26 µM (active) | EC50 [2]: > 60 µM (not active)

O=[N+]([O-])c1cc(-c2nnc(Nc3ccccc3)c3ccccc23)ccc1N1CCOCC1
EC50 [1]: 1.28 µM (active) | EC50 [2]: > 30 µM (not active)

NCCSCc1ccccc1Cl
AC50 (Cytochrome P450 2C9): 3.98 µM (inconclusive)

O=[N+]([O-])c1ccc2c(c1)Cc1cc(O)ccc1-2
IC50 [6]: 16.7 µM (active)

CCOC(=O)CSc1ncc(OC)c(Sc2ccc(Cl)cc2)n1
AC50 (Cytochrome P450 3A4): 25.1 µM (inconclusive)

O=S(=O)(N1CCCCC1)n1nnc2ccccc21
EC50 [4]: > 195 µM (not active)

CCOc1ccc(-c2cn(S(=O)(=O)c3cccc4nsnc34)nc2N)cc1
CC50 [5]: > 50 µM (active)

O=C(NNC(=O)c1ccc2c(c1)C(=O)N(C1CCCCC1)C2=O)c1cccnc1
AC50 (Cytochrome P450 2C9): 15.8 µM (inconclusive)

O=C1OC2(CCCCC2)OC(O)=C1/C=N/c1nccs1
EC50 [4]: > 195 µM (not active)

O=C(NCC#CCSc1nnc(-c2cccc3ccccc23)o1)c1cccs1
AC50 (INS1): 2.51 µM (active)

CCN(CC)S(=O)(=O)c1cccc(C(=O)N/N=C/c2ccc(OC)c(O)c2)c1
IC50 [6]: 76.7 µM (active)

CCNc1ncc2nc(CCc3ccccc3)c(=O)n(CCOC)c2n1
AC50 (Cytochrome P450 3A4): 15.8 µM (inconclusive)

COc1ccc(Oc2ncc3nc(-c4ccc(Cl)cc4)c(=O)n(CCC#N)c3n2)cc1
AC50 (Cytochrome P450 2C9): 7.94 µM (inconclusive)

C=CCN(CC=C)C(=S)NC(=O)c1ccc(OC)c(Br)c1
AC50 (Cytochrome P450 2C9): 15.8 µM (inconclusive)

Cc1cc(/C=C2\C(=N)N3N=C(C(C)C)SC3=NC2=O)c(C)n1Cc1ccccc1
CC50 [5]: 21.5 µM (active)

CCOC(=O)c1cn2nc(-c3ccc(OC)cc3)cc2nc1C1CCN(C(=O)OC(C)(C)C)CC1
EC50 [1]: 1.55 µM (active) | EC50 [2]: > 60 µM (not active)

O=C(O)CSc1cc(-c2ccccc2)nc2ccccc12
AC50 (Cytochrome P450 2C9): 3.16 µM (inconclusive)

COc1ccc(NCc2ccsc2)cc1
IC50 [6]: 29.6 µM (active)

N#C/C(=C\c1c(Cl)cccc1Cl)c1nn(-c2ccccc2)c(-n2cccc2)c1C#N
EC50 [1]: 1.29 µM (active) | EC50 [2]: > 60 µM (not active)

CC#CC[N+](C)(C)CCCCCCCC
AC50 (INS1): 28.7 µM (active)
